Reference: patent US20230416791A1, “METHOD TO PRODUCE BRANCHED-CHAIN POLYHYDROXYALKANOATES AND BRANCHED-CHAIN 3-HYDROXYACIDS FROM GLUCOSE” (Alliance for Sustainable Energy, LLC, priority 2022, published 2023)
Substitutions are numbered along the chain they refer to. Names and notes keep the numbering of the source.

Experiments:
MadB = assay: Transformation of non-EcAcpP substrate by MadB (HPLC / LC-MS detection); assay type: biochemical, Pseudomonas putida KT2440; conditions: 1 mM substrate, 5 μM MadB, HEPES pH 7.5, room temperature
Procedure: Transformation of non-EcAcpP substrate by MadB. […] The reaction contained 1 mM of the alternate substrate and 5 μM of MadB in HEPES (I=0.1 M) pH 7.5 supplemented with 10 mM MgCl2 and 1 mM TCEP. The reaction was incubated at room temperature with an intermittent agitation for −1 hour prior to being passed through a 0.2 μm filter and frozen until further analysis.
Detection of various CoA analytes in the samples were performed on an Agilent 1200 HPLC system (Agilent Technologies) equipped with an Agilent 6120 mass spectrometer detector (MS). Each sample and standard were injected at a volume of 2 μL on a Phenomenex Luna C18(2)-HST column 100A′, […], 2.0×100 mm column (Phenomenex). The column temperature was maintained at 45° C. and the buffers used to separate the analytes of interest was 0.1% formic acid in water (A)/0.1% formic acid in acetonitrile (B). A gradient program was used to separate the analytes of interest: (A)=100% and (B)=0% at time t=0; (A)=100% and (B)=0% at t=1 min; (A)=50% and (B)=50% at t=7.65 min; (A)=30% and (B)=70% at t=9.33 min; (A)=30% and (B)=70% at t=10.67 min; (A)=100% and (B)=0% at t=10.68 min; (A)=100% and (B)=0% at t=13 min. The flow rate was held constant at 0.50 mL/min resulting in a run time of 13 minutes. The MS system was setup in positive electrospray ionization mode with a gas temperature of 350° C., drying gas at 12 L/min, nebulizer pressure set to 35 psig, and a Vcap voltage of 3000v. A total of four different masses in SIM mode from the MS detector were used to determine the presence and or absence of each analyte of interest. […] One standard from each analyte was used to determine the elution order and retention times of the compounds.
Detection of malonic and acetic acid was performed on an Agilent 1290 HPLC system (Agilent Technologies) equipped with an Agilent G7117A diode array detector (DAD). NREL's laboratory analytical procedure “Determination of Structural Carbohydrates and Lignin in Biomass” (Sluiter et al., 2012) HPLC method was used to detect the analytes of interest as outlined below. […]

[1] = molecular target: T1, Pseudomonas putida KT2440 MadB (PP_0262) variant Asn45Ala (N45A) (Pseudomonas putida, UniProt Q88R72, N45A); assay: ITC steady-state kinetics of malonyl-CoA decarboxylation
T1 sequence (Q88R72 1-151 N45A): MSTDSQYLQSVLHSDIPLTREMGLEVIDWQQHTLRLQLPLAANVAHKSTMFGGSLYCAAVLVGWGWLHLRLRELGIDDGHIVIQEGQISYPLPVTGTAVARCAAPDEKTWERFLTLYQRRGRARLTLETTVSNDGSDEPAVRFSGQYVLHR
Excerpt: (§1) Kinetic determination using ITC.
(§2) Both variants were purified similarly to the wild-type MadB.

[2] = molecular target: T2, Pseudomonas putida KT2440 MadB (PP_0262) variant His46Ala (H46A) (Pseudomonas putida, UniProt Q88R72, H46A); assay: as above
T2 sequence (Q88R72 1-151 H46A): T1 sequence (Q88R72 1-151 N45A) with A45N, H46A
Excerpt: as §1, §2

[3] = molecular target: T3, Pseudomonas putida KT2440 MadB (PP_0262, malonyl-ACP decarboxylase), wild type (Pseudomonas putida, UniProt Q88R72); conditions: malonyl-CoA decarboxylation, ITC, 30° C., pH 7.5
T3 sequence (Q88R72 1-151): T1 sequence (Q88R72 1-151 N45A) with A45N

ΔmadB ΔfabH1 P. putida = assay: Growth curves with straight-chain fatty acid supplementation (microplate reader); assay type: cell-based, Pseudomonas putida KT2440; conditions: fatty acid sodium salt at 100 μg/mL, modified M9 with glucose, 30° C.
Procedure: (§3) Microplate reader experiments. Microplate reader experiments were performed by inoculating seed cultures from glycerol stocks into 10 mL of LB Broth (Miller; Sigma-Aldrich) with appropriate antibiotics in a 125 mL flask and incubating overnight at 30° C. (P. putida) or 37° C. (E. coli) and 225 rpm. Overnight cultures were then used to inoculate a second seed culture into 10 mL of LB Broth (Miller; Sigma-Aldrich) with appropriate antibiotics in a 125 mL flask starting at an optical density of 0.2 measured at 600 nm (0D600) using a GENESYS™ 140 Visible Light Spectrophotometer (Thermo Scientific). The second seed cultures were incubated at 30° C. (P. putida) or 37° C. (E. coli) at 225 rpm for 2-4 hrs until an OD600 of approximately 2 was reached. The second seed cultures were centrifuged at 8,000 rpm for 3 min, the pellets were washed with 1× M9, minimal salts (Sigma-Aldrich) three times, and resuspended to an OD600=3.0. Cells (10 μL) were transferred to five replicate wells in a 100-well Honeycomb 2 plate (Growth Curves USA) containing 290 μL of growth medium, corresponding to initial OD600=0.1. E. coli strains were grown in LB Broth (Miller; Sigma-Aldrich) at 37° C. and supplemented with 50 μg/mL kanamycin and 0.1 mM isopropylthio-β-galactoside (IPTG; GoldBio) when appropriate. P. putida strains were grown in modified M9 minimal media containing 6.78 g/L Na2HPO4, 3 g/L KH2PO4, 1 g/L NH4C1, 0.5 g/L NaCl, 2 mM MgSO4, 100 μM CaCl2, and 2 g/L glucose at 30° C. For fatty acid supplementation experiments, sodium salts of a given fatty acid (Sigma-Aldrich) were added to a final concentration of 100 μg/mL. OD600 measurements were acquired every 15 min with a Bioscreen C Pro (Growth Curves USA) and plate was shaken continuously. Maximum specific growth rates were calculated using a spline model (https://github.com/scott-saunders/growth_curve_fitting).

[4] = test system: P. putida KT2440 ΔmadB ΔfabH1; assay: Growth of P. putida ΔmadB ΔfabH1 supplemented with straight-chain fatty acids; assay type: cell-based, Pseudomonas putida KT2440; conditions: 100 μg/mL, modified M9 minimal medium, 30° C.
Procedure: as §3

[5] = substrate: CC(C)(COP(=O)(O)OP(=O)(O)OC[C@H]1O[C@@H](n2cnc3c(N)ncnc32)[C@H](O)[C@@H]1OP(=O)(O)O)[C@@H](O)C(=O)NCCC(=O)NCCSC(=O)CC(=O)O; assay: purified protein, by the assay type; conditions: other: malonyl-CoA decarboxylation, ITC, 30° C., pH 7.5
[6] = malonyl-CoA, Asn45Ala vs wild-type
[7] = malonyl-CoA, His46Ala vs wild-type

In the case of `CC(C)(COP(=O)(O)OP(=O)(O)OC[C@H]1O[C@@H](n2cnc3c(N)ncnc32)[C@H](O)[C@@H]1OP(=O)(O)O)[C@@H](O)C(=O)NCCC(=O)NCCSC(=O)CC(=O)O` [malonyl-CoA], the “decarboxylation by MadB” value (MadB) is reported as “capable of decarboxylating”, the Kcat ([1]; malonyl-CoA decarboxylation, Asn45Ala, ITC, 30° C., pH 7.5) is reported as 0.06 ± 0.01 s⁻¹ and the “Michaelis constant relative to wild-type” value [1, 6] is reported as “about half”. For the same molecule, the “lower catalytic efficiency compared to the wild-type enzyme” value [1, 6] was 13 fold, the Kcat ([2]; malonyl-CoA decarboxylation, His46Ala, ITC, 30° C., pH 7.5) was 0.45 ± 0.01 s⁻¹ and the “Michaelis constant relative to wild-type” value [2, 7] was “about half”. The “lower catalytic efficiency compared to the wild-type enzyme” value [2, 7] was 1.5 fold and the Kcat [3] was 1.4 ± 0.1 s⁻¹.

With `O=C(O)CC(=O)O` [malonate] the “decarboxylation by MadB” value (MadB) was “not”.

In the case of `CC(C(=O)O)C(=O)SCCNC(=O)CCNC(=O)[C@H](O)C(C)(C)COP(=O)(O)OP(=O)(O)OC[C@H]1O[C@@H](n2cnc3c(N)ncnc32)[C@H](O)[C@@H]1OP(=O)(O)O` (stereo partly shown) [methylmalonyl-CoA], the “decarboxylation by MadB” value (MadB) is reported as “capable of decarboxylating”.

With `CCCCCC(=O)O` [C6] the “effect on growth of ΔmadB ΔfabH1” value (ΔmadB ΔfabH1 P. putida) was “appeared to improve growth, albeit less significantly” and the “effect of fatty acid supplementation on growth” value [4] was “improve growth, albeit less significantly”.

In the case of `CC(=O)O` [C2], the “effect on growth of ΔmadB ΔfabH1” value (ΔmadB ΔfabH1 P. putida) is reported as “had no effect on growth” and the “effect of fatty acid supplementation on growth” value [4] is reported as “no effect on growth”.

In the case of `CCCCCCCCCC(=O)O` [C10], the “effect on growth of ΔmadB ΔfabH1” value (ΔmadB ΔfabH1 P. putida) is reported as “dramatic improvement of growth” and the “effect of fatty acid supplementation on growth” value [4] is reported as “dramatic improvement of growth”.

`CCCC(=O)O` [C4] was tested, and the “effect on growth of ΔmadB ΔfabH1” value (ΔmadB ΔfabH1 P. putida) was “inhibited” and the “effect of fatty acid supplementation on growth” value [4] was “inhibited”.

With `CCCCCCCC(=O)O` [C8] the “effect on growth of ΔmadB ΔfabH1” value (ΔmadB ΔfabH1 P. putida) was “dramatic improvement of growth” and the “effect of fatty acid supplementation on growth” value [4] was “dramatic improvement of growth”.

B1: Pseudomonas putida KT2440 MadB (PP_0262, malonyl-ACP decarboxylase), wild type (Pseudomonas putida KT2440) (protein)
chain: T1 sequence (Q88R72 1-151 N45A) with A45N
Molecule B1 has a Km ([5]; wild-type MadB) of 12 ± 1 mM, a kcat ([5]; wild-type MadB) of 1.4 s⁻¹ and a kcat/Km ([5]; wild-type MadB) of 120 M⁻¹ s⁻¹.

B2: Pseudomonas putida KT2440 MadB (PP_0262) variant Asn45Ala (N45A) (Pseudomonas putida KT2440; N45A) (protein)
chain: T1 sequence (Q88R72 1-151 N45A)
In the case of B2, the Km ([5]; Asn45Ala) is reported as 6.9 ± 0.5 mM.

B3: Pseudomonas putida KT2440 MadB (PP_0262) variant His46Ala (H46A) (Pseudomonas putida KT2440; H46A) (protein)
chain: T1 sequence (Q88R72 1-151 N45A) with A45N, H46A
In the case of B3, the Km ([5]; His46Ala) is reported as 5.7 ± 0.2 mM.
